Measurements reported in patent publication US20100240760A1 (priority 2005, published 2010).

Key:
[1] = system: patients with mild-to-moderate essential hypertension; assay: Clinical trial A2201 (Example I): aliskiren vs placebo and irbesartan, 8 weeks; assay type: in vivo, human; conditions: for MSDBP responders / MSSBP responders: ITT population at Endpoint, aliskiren 150-600 mg groups, irbesartan 150 mg; for MSDBP responders: responder: MSDBP <90 mm Hg or ≧10 mm Hg reduction from baseline; for MSSBP responders: responder: MSSBP <140 mm Hg or ≧20 mm Hg reduction from baseline; for mean increase in active renin: ITT population
Description: The clinical trial. A multicenter, randomized, double-blind, parallel group clinical trial was designed to explore the efficacy and safety of aliskiren compared to placebo in a population of mild-to-moderate hypertensive patients. The treatment was for eight weeks, i.e., the clinical trial endpoint was at eight weeks for this particular trial. […] The majority of patients were Caucasian and younger than 65 years of age, with a mean age in the mid 50s. The overall distribution of males and females was even. The primary efficacy variable analysed was MSDBP change (reduction in MSDBP from baseline). The secondary efficacy variables analysed were MSSBP change (reduction in MSSBP from baseline), responder ratio, plasma renin activity (PRA) reduction and active plasma renin (AREN) increase from baseline.

[2] = system: patients with mild-to-moderate essential hypertension; assay: Pharmacogenetic analysis of A2201 (Example I): response by ACE and AGTR2 genotype; assay type: in vivo, human; conditions: aliskiren treated groups pooled
[3] = system: patients with mild-to-moderate essential hypertension; assay: Clinical trial A2201 (Example I): aliskiren vs placebo and irbesartan, 8 weeks; assay type: in vivo, human; conditions: 75, 150, or 300 mg once daily; mild-to-moderate hypertensive patients
[4] = system: sodium-depleted marmosets; conditions: p.o. or i.v.; cited from earlier work
hypertensive patients = assay: Clinical trial A2203 (Example II): aliskiren, valsartan and combinations, 6 weeks; assay type: in vivo, human
[5] = humans; cited from earlier work
[6] = system: patients with mild-to-moderate essential hypertension; assay: Re-analysis of A2201 by genotype (Example II model, LSMEAN, race as covariate); assay type: in vivo, human; conditions: all aliskiren treated groups in A2201
Description: Samples. Patients participating in the clinical trial A2201 (see, EXAMPLE I) and clinical trial A2203 were asked to provide a separate consent for participation in pharmacogenetic analysis. Blood samples from all consenting patients were collected at the individual trial sites and then shipped to Covance (Indianapolis, Ind.). The genomic DNA of each patient was extracted from the blood by Covance using the […]™ DNA Isolation Kit (D-50K) (Gentra, Minneapolis, Minn.) and shipped to NIBR for genotyping. Ultimately, 511 patients from the clinical trial in EXAMPLE I (A2201) were genotyped, with roughly equal ratios of each treatment arm.
The primary efficacy variable was MSDBP change (reduction in MSDBP from baseline at end point). The secondary efficacy variables are MSSBP change (reduction in MSSBP from baseline at end point), responder ratio, plasma renin activity (PRA) reduction and active plasma renin (AREN) increase from baseline.
Genotyping. SNP assays were designed using information from the public dbSNP database and the proprietary Celera/ABI database. The resulting probe sets for the genotyping assay were generated for ABI's Assays-by-Design® platform. Livak K J et al., Nat. Genet. 9: 341-2 (1995). Genotyping was performed on 10 ng of genomic DNA according to the manufacturer's instructions.
Statistical analysis. Genotype-phenotype association studies and related analyses were performed in SAS (Cary, N.C.) using Analyst.
Association tests used categorical genotypes as the independent variable, with no assumption about dominance, and the various efficacy variables as dependent variables. Tests of continuous dependent variables used an ANCOVA analysis, and logistic regression was used for categorical dependent variables. Note that none of the results have been adjusted for multiple hypothesis testing. […] Covariates in the genotype-phenotype association analysis were: (1) dose level of treatment; (2) trial region coded as STU1A in A2201 (see EXAMPLE I) or REGION in A2203; (3) baseline measurement of MSDBP and MSSBP; and (4) race. Analysis was performed in all the samples from the three aliskiren treated arms first.

[7] = SNP_4769 genotype CT (n 14), listed as Aliskiren
[8] = SNP_4769 genotype TT (n 278), listed as Aliskiren

With `CCCCC1=NC2(CCCC2)C(=O)N1Cc1ccc(-c2ccccc2-c2nnn[nH]2)cc1` [irbesartan] as the molecule, how does the MSDBP responders [1] read?
Its MSDBP responders is 56%.

What about the MSSBP responders [1] of the same molecule?
The MSSBP responders was 59%.

And the “mean increase in active renin” value ([1]; 150 mg)?
Its value is 11.2 mu/mL.

Which results are given for `COCCCOc1cc(C[C@@H](C[C@H](N)[C@@H](O)C[C@H](C(=O)NCC(C)(C)C(N)=O)C(C)C)C(C)C)ccc1OC` [aliskiren, Aliskiren]?
MSDBP reduction ([2]; SNP_1445 genotype AA (n 106)): −11.2 mmHg; MSSBP reduction ([2]; SNP_1445 genotype AA (n 106)): −13.9 mm Hg; MSDBP reduction ([2]; SNP_1445 genotype AG (n 69)): −13.2 mmHg; MSSBP reduction ([2]; SNP_1445 genotype AG (n 69)): −15.7 mm Hg; MSDBP reduction ([2]; SNP_1445 genotype GG (n 118)): −9.3 mmHg; MSSBP reduction ([2]; SNP_1445 genotype GG (n 118)): −11.8 mm Hg; MSDBP reduction ([2]; SNP_4769 genotype CT (n 14)): 4.7 mmHg; MSSBP reduction ([2]; SNP_4769 genotype CT (n 14)): 6.2 mm Hg; MSDBP reduction [2, 7]: −4.7 mmHg; MSSBP reduction [2, 7]: −6.2 mm Hg; MSDBP reduction ([2]; SNP_4769 genotype TT (n 278)): 11.1 mmHg; MSSBP reduction ([2]; SNP_4769 genotype TT (n 278)): 13.7 mm Hg; MSDBP reduction [2, 8]: −11.1 mmHg; MSSBP reduction [2, 8]: −13.7 mm Hg; MSDBP reduction ([2]; SNP_4795 genotype AA (n 115)): −9.0 mmHg; MSSBP reduction ([2]; SNP_4795 genotype AA (n 115)): −11.5 mm Hg; MSDBP reduction ([2]; SNP_4795 genotype GA (n 72)): −13.3 mmHg; MSSBP reduction ([2]; SNP_4795 genotype GA (n 72)): −16.3 mm Hg; MSDBP reduction ([2]; SNP_4795 genotype GG (n 106)): −11.1 mmHg; MSSBP reduction ([2]; SNP_4795 genotype GG (n 106)): −13.6 mm Hg; daytime ambulatory systolic blood pressure (DASBP) [3]: statistically significant reduction; MSDBP responders [1]: 59-67%; MSSBP responders [1]: 57-68%; mean increase in active renin ([1]; 150 mg): 20.8 mu/mL; mean increase in active renin ([1]; 300 mg): 29.9 mu/mL; mean increase in active renin ([1]; 600 mg): 93.6 mu/mL; MSDBP reduction, comparison across treatment groups ([1]; aliskiren 300 and 600 mg): greatest reductions; MSSBP reduction, comparison across treatment groups ([1]; aliskiren 300 and 600 mg): greatest reductions; MSSBP reduction, comparison with placebo and irbesartan ([1]; aliskiren 300 and 600 mg, at Endpoint): statistically superior to placebo and irbesartan; inhibition of plasma renin activity (PRA) [4]: complete inhibition; mean arterial pressure (MAP) [4]: sustained reductions; plasma concentrations of active and total renin [4]: significant increases; change from baseline in MSDBP, aliskiren monotherapy vs. placebo (hypertensive patients; aliskiren 300 mg group, 6 weeks): statistically significant; dose-response and magnitude of placebo-subtracted effects (hypertensive patients; preliminary clinical study results summary, placebo response 8.6 mmHg): lower than expected; Cmax and AUC dependence on dose [5]: increase with dose, but in a non-linear fashion; bioavailability [5]: approximately 2.7%; half-life [5]: approximately 25 hours; time to peak plasma levels after administration [5]: 3 to 5 h; LSMEAN of MSDBP reduction ([6]; SNP_1445 genotype AA (n 106)): −11.0 mmHg; LSMEAN of MSSBP reduction ([6]; SNP_1445 genotype AA (n 106)): −11.2 mmHg; Responder rate ([6]; SNP_1445 genotype AA (n 106)): 75%; LSMEAN of MSDBP reduction ([6]; SNP_1445 genotype AG (n 69)): −13.3 mmHg; LSMEAN of MSSBP reduction ([6]; SNP_1445 genotype AG (n 69)): −13.8 mmHg; Responder rate ([6]; SNP_1445 genotype AG (n 69)): 71%; LSMEAN of MSDBP reduction ([6]; SNP_1445 genotype GG (n 118)): −9.4 mmHg; LSMEAN of MSSBP reduction ([6]; SNP_1445 genotype GG (n 118)): −9.8 mmHg; Responder rate ([6]; SNP_1445 genotype GG (n 118)): 58%; Responder rate ([6]; SNP_4769 genotype CT (n 14)): 14%; LSMEAN of MSDBP reduction ([6]; SNP_4795 genotype AA (n 115)): −9.2 mmHg; LSMEAN of MSSBP reduction ([6]; SNP_4795 genotype AA (n 115)): −9.5 mmHg; Responder rate ([6]; SNP_4795 genotype AA (n 115)): 57%; LSMEAN of MSDBP reduction ([6]; SNP_4795 genotype GA (n 72)): −13.4 mmHg; LSMEAN of MSSBP reduction ([6]; SNP_4795 genotype GA (n 72)): −14.2 mmHg; Responder rate ([6]; SNP_4795 genotype GA (n 72)): 74%; LSMEAN of MSDBP reduction ([6]; SNP_4795 genotype GG (n 106)): −10.8 mmHg; LSMEAN of MSSBP reduction ([6]; SNP_4795 genotype GG (n 106)): −10.8 mmHg; Responder rate ([6]; SNP_4795 genotype GG (n 106)): 75%
